Here are results for 42 molecules from publication PMC9995496, “A screen for MeCP2-TBL1 interaction inhibitors using a luminescence-based assay” (Scientific Reports, 2023).

The test has as its system PRKACA-PRKAR2A interaction (SmBiT-PRKACA / LgBiT-PRKAR2A), protein kinase A. Details: NanoLuc complementation counter-screen in cell extract, PRKACA with PRKAR2A, loss of luminescence, detects NanoLuc interference. To be noted: 0.5 h, 20 µM, inhibitor.
The mark [1] stands for this setting: counter-screen for NanoLuc interference.
The mark [2] stands for this setting: counter-screen for NanoLuc interference, Inh (PKA).

Each structure is given as a SMILES string. Where a name gives a salt, the structure may show the parent alone. Read-outs that look alike come from different tables or passages of the source.

As to `CO[C@H]1C[C@@H]2CC[C@@H](C)[C@@](O)(O2)C(=O)C(=O)N2CCCC[C@H]2C(=O)O[C@H]([C@H](C)C[C@@H]2CC[C@@H](O)[C@H](OC)C2)CC(=O)[C@H](C)/C=C(\C)[C@@H](O)[C@@H](OC)C(=O)[C@H](C)C[C@H](C)/C=C/C=C/C=C/1C` [UM0141925:01, Rapamycin (Sirolimus)], the “Inh (PKA)” value under setting [1] was found to be 2.249%. Take `CCCCC(CC)CNC(=N)NC(=N)NCCCCCCNC(=N)NC(=N)NCC(CC)CCCC` (stereo not drawn) [UM0118099:03, Alexidine dihydrochloride]: under setting [1], the “Inh (PKA)” value amounted to 24.16%.

`CNS(=O)(=O)CCc1ccc2[nH]cc(C3CCN(C)CC3)c2c1` [UM0142462:01, Naratriptan]: the “Inh (PKA)” value under setting [1] is recorded as -0.5355%. The same measure, in the same setting: as for `CCCN[C@H]1CCc2nc(N)sc2C1` [UM0142273:01, Pramipexole], the figure is -0.01445%; as for `O=C1CCc2cc(OCCCCc3nnnn3C3CCCCC3)ccc2N1` [UM0119639:03, Cilostazol], 4.034%; as for `CCN1CCN(c2ccc(Nc3cc(N(C)C(=O)Nc4c(Cl)c(OC)cc(OC)c4Cl)ncn3)cc2)CC1` [UM0141502:01, BGJ398], -0.1399%. The same measure, in the same setting: then `NC(=O)c1ncn([C@@H]2O[C@H](CO)[C@@H](O)[C@H]2O)c1O` [UM0119983:03, Mizoribine], with -0.2089%; and `CCOC(=O)Nc1cc(-c2ccc(C)c(NS(C)(=O)=O)c2)nn2c(C)nnc12` [UM0141751:01, Bromosporine], with 9.043%; and `Cn1cc(-c2[nH]c3cc(NC(=O)[C@H](N)C4CCCCC4)cc4c3c2C=NNC4=O)cn1` [UM0142256:01, PF-477736], with 39.56%. In the case of `CCCNC(=O)Nc1ccc(Oc2ncnc3cc(OC)c(OC)cc23)cc1Cl` [UM0141907:01, KRN 633], the “Inh (PKA)” value under setting [1] was 0.03165%. The same measure, in the same setting: then `C=C[C@@H]1C[C@]1(NC(=O)[C@@H]1C[C@@H](Oc2ncc(OC)c3ccc(Cl)cc23)CN1C(=O)[C@@H](NC(=O)OC(C)(C)C)C(C)(C)C)C(=O)NS(=O)(=O)C1CC1` [UM0141521:01, Asunaprevir (BMS-650032)], with -7.752%. Consider `O=C(O)C1=C(CSc2nnnn2CS(=O)(=O)O)CS[C@@H]2[C@H](NC(=O)[C@H](O)c3ccccc3)C(=O)N12` [UM0142832:01, Cefonicid (sodium salt)], for which, under setting [1], the “Inh (PKA)” value was found to be 2.197%. On the same count and under the same terms, as for `CNC(=O)c1ccc(N2C(=S)N(c3cnc(C#N)c(C(F)(F)F)c3)C(=O)C23CCC3)cc1F` [UM0142016:01, ARN-509], the figure is 2.375%. With `Cn1c(COP(=O)(NCCBr)NCCBr)cnc1[N+](=O)[O-]` [UM0141638:01, TH-302], the “Inh (PKA)” value is on record as 1.841%.

On to `Nc1nc(N)nc(-c2cc(Cl)ccc2Cl)n1` [UM0142318:01, Irsogladine], for which the “Inh (PKA)” value under setting [1] turned out to be 5.104%. Consider `COC1=CC(c2cc3ccccc3[nH]2)=N/C1=C\c1[nH]c(C)cc1C` [UM0141758:01, Obatoclax mesylate (GX15-070)], for which the “Inh (PKA)” value under setting [1] is 43.77%. Still for that read-out and setting: as for `Clc1ccc(C2(c3ccc(-c4cn[nH]c4)cc3)CCNCC2)cc1` [UM0141900:01, AT7867], the figure is 29.71%; as for `Nc1nc(=O)n([C@@H]2CS[C@H](CO)O2)cc1F` [UM0142037:01, Emtricitabine], -0.284%; as for `NS(=O)(=O)NCCNc1nonc1/C(=N/O)Nc1ccc(F)c(Br)c1` [UM0141562:02, INCB-024360], 8.041%.

In the case of `O=C1NC(=O)/C(=C/c2ccc3nccc(-c4ccncc4)c3c2)S1` [UM0142432:01, GSK1059615], the “Inh (PKA)” value under setting [1] was 27.08%. Same read-out and setting: as for `O=C(O)CCNc1cc(N2CCc3ccccc3CC2)nc(-c2ccccn2)n1` [UM0141755:01, GSK J1], the figure is 1.8%; as for `COc1nccc(-c2c(-c3ccc(F)cc3)ncn2[C@H]2CC[C@H](O)CC2)n1` [UM0141625:01, SB 239063], 17.29%; as for `O=C(O)CC[C@H]1CC[C@@](c2cc(F)ccc2F)(S(=O)(=O)c2ccc(Cl)cc2)CC1` [UM0141661:01, MK-0752], 5.084%.

On to `CCN(CCCOc1ccc2c(Nc3cc(CC(=O)Nc4cccc(F)c4)[nH]n3)ncnc2c1)CCOP(=O)(O)O` [UM0141525:01, AZD1152], for which, under setting [1], the “Inh (PKA)” value is listed as 8.114%. Regarding `COc1ccc(C(CN(C)C)C2(O)CCCCC2)cc1` (stereo not drawn) [UM0141884:01, Venlafaxine], the “Inh (PKA)” value under setting [1] is recorded as -0.1027%. With `N=C(N)SCCc1ccc(OCc2ccc([N+](=O)[O-])cc2)cc1` [UM0141571:01, KB-R7943 mesylate], the “Inh (PKA)” value under setting [1] is on record as 7.839%. Regarding `OC[C@H]1O[C@@H](n2cnc3c2N=CNC[C@H]3O)C[C@@H]1O` [UM0141599:01, Pentostatin], under setting [1], the “Inh (PKA)” value was found to be 1.284%.

`N#Cc1ccc(Oc2ccc3c(c2)COB3O)cc1` [UM0141516:01, AN-2728]: under setting [1], the “Inh (PKA)” value amounted to 2.062%.

Regarding `C=CC(=O)Nc1cc2c(Nc3ccc(F)c(Cl)c3)ncnc2cc1OCCCN1CCOCC1` [UM0141416:01, Canertinib (CI-1033)], the “Inh (PKA)” value under setting [1] worked out at 5.945%. On the same count and under the same terms, then `CN(C)CCCCC(=O)Nc1ccc(NC(=S)NC(=O)c2ccc(C(C)(C)C)cc2)cc1` [UM0141976:01, Tenovin-6], with 9.354%; and `O=C1CN2Cc3c(ccc(Cl)c3Cl)N=C2N1` [UM0141804:01, Anagrelide HCl], with 2.161%; and `C[C@H](CS)C(=O)N1CCC[C@H]1C(=O)O` [UM0118157:03, Captopril], with 5.226%. Regarding `C[C@@H]1C[C@H]2[C@@H]3CCC4=CC(=O)C=C[C@]4(C)[C@@]3(F)[C@@H](O)C[C@]2(C)[C@@]1(O)C(=O)CO` [UM0141456:01, Dexamethasone (DHAP)], under setting [1], the “Inh (PKA)” value is 0.4412%. The same measure, in the same setting: as for `CS(=O)(=O)c1cccc(CNc2nc(Nc3ccc4c(c3)CCC(=O)N4)ncc2C(F)(F)F)c1` [UM0142290:01, PF-573228], the figure is 25.03%; as for `O=C(NCC1(c2nc(-c3ccccc3)cs2)CCOCC1)c1cccc(-c2noc(C(F)(F)F)n2)c1` [UM0142136:01, TMP269], 21.99%.

Take `CC(C)(O)CNc1nc(Nc2ccnc(C(F)(F)F)c2)nc(-c2cccc(C(F)(F)F)n2)n1` [UM0139434:02, AG-221 (Enasidenib)]: the “Inh (PKA)” value is 31.79. As for `CC(C)(C)c1cc(C(C)(C)C)c(NC(=O)c2c[nH]c3ccccc3c2=O)cc1O` [UM0141863:01, Ivacaftor (VX-770)], the “Inh (PKA)” value under setting [1] amounted to 12.69%. For `CCOC(=O)C1=C(C)NC(C)=C(C(=O)OC)C1c1cccc([N+](=O)[O-])c1` (stereo not drawn) [UM0142235:01, Nitrendipine], under setting [1], the “Inh (PKA)” value was 91.42%. For the molecule `Cc1c(NC(=O)OC[C@@H]2COCCN2)cn2ncnc(Nc3ccc4c(cnn4Cc4cccc(F)c4)c3)c12` [UM0141485:01, AC480 (BMS-599626)], under setting [1], the “Inh (PKA)” value turned out to be 24.24%. For `Cc1ccc(C(=O)Nc2ccc(CN3CCN(C)CC3)c(C(F)(F)F)c2)cc1C#Cc1cnc2cccnn12` [UM0141892:01, Ponatinib (AP24534)], under setting [1], the “Inh (PKA)” value is 38.47%. For `N#CC[C@H](C1CCCC1)n1cc(-c2ncnc3[nH]ccc23)cn1` [UM0141500:01, Ruxolitinib (INCB018424)], the “Inh (PKA)” value under setting [2] is recorded as 28.73%. On the same count and under the same terms, as for `CCCc1nn(C)c2c(=O)[nH]c(-c3cc(S(=O)(=O)N4CCN(C)CC4)ccc3OCC)nc12` [UM0141781:01, Sildenafil Citrate], the figure is 4.187%.
